Reference: PMC6598542, “Synthesis of a new series of 3-functionalised-1-phenyl-1,2,3-triazole sulfamoylbenzamides as carbonic anhydrase I, II, IV and IX inhibitors” (Journal of Enzyme Inhibition and Medicinal Chemistry, 2019)
Read-outs that look alike come from different tables or passages of the source.

How the values were obtained:
[1] = target: T1, hCA IX (Homo sapiens, UniProt Q16790); test: stopped-flow CO2 hydration; assay type: biochemical
T1 construct: gene CA9; recombinant, transmembrane isoform
Procedure, shortened: (§1)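 Each recombinant human isozyme was held with inhibitor for 10 min at room temperature before a stopped-flow assay of CO2 hydration at 25 °C. The buffer was 10 mM Hepes pH 7.4 with 0.1 M Na2SO4 or NaClO4 and 0.2 mM Phenol Red read at 557 nm over 5–10 s, and CO2-saturated water served as substrate. Ki constants come from non-linear least-squares fits using the Cheng-Prusoff equation. At least seven inhibitor concentrations, the lowest 0.01 nM, were tested in triplicate, and values are means of at least three determinations.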

[2] = target: T2, hCA I (Homo sapiens, UniProt P00915); test: stopped-flow CO2 hydration; assay type: biochemical
T2 construct: gene CA1; recombinant, cytosolic isoform
Procedure, shortened: as §1

[3] = target: T3, hCA IV (Homo sapiens, UniProt P22748); test: biochemical; set-up: Stopped-flow CO2 hydration assay, phenol red at 557 nm, 10 min preincubation, recombinant hCA; Ki via Cheng-Prusoff
T3 construct: gene CA4
Experimental: An SX.18 MV-R Applied Photophysics (Oxford, UK) stopped-flow instrument has been used for assaying the CA catalyzed CO2 hydration activity. Phenol Red (at a concentration of 0.2 mM) has been used as indicator, working at the absorbance maximum of 557 nm, with 10 mM Hepes (pH 7.4) as buffer, 0.1 M Na2SO4 or NaClO4 (for maintaining constant the ionic strength; these anions are not inhibitory in the used concentration), following the CA-catalyzed CO2 hydration reaction for a period of 5–10 s. Saturated CO2 solutions in water at 25 °C were used as substrate. Stock solutions of inhibitors were prepared at a concentration of 10 μM (in DMSO-water 1:1, v/v) and dilutions up to 0.01 nM done with the assay buffer mentioned above. At least seven different inhibitor concentrations have been used for measuring the inhibition constant. Inhibitor and enzyme solutions were preincubated together for 10 min at room temperature prior to assay, in order to allow for the formation of the E-I complex. Triplicate experiments were done for each inhibitor concentration, and the values reported throughout the paper are the mean of such results. The inhibition constants were obtained by non-linear least-squares methods using the Cheng-Prusoff equation, as reported earlier, and represent the mean from at least three different determinations. All CA isozymes used here were recombinant proteins obtained as reported earlier by our group[10]^c,[25]^,[26]. The newly synthesised compounds 3-sulfamoylbenzamide linked 1,2,3-triazoles (Figure 4) (6a–z) as well as the intermediates (3a–d) and (4a–d) (listed in Table 1) were screened for their CA inhibitory activities against four physiologically significant isoforms, the cytosolic hCA I (associated with edema) and II (associated with glaucoma) as well as the membrane bound hCA IV (associated with glaucoma and retinitis pigmentosa) and transmembrane hCA IX (associated with tumors) by means of the stopped flow carbon dioxide assays[29] in comparison to AAZ as standard CAI (Table 2).

[4] = target: T4, hCA II (Homo sapiens, UniProt P00918); test: stopped-flow CO2 hydration; assay type: biochemical; settings: read-out: hCAII
T4 construct: gene CA2; recombinant, cytosolic isoform
Procedure, shortened: as §1

[5] = CO2 substrate, pH […] Hepes, […] °C, […] min preincubation

T2 sequence (P00915 2-261): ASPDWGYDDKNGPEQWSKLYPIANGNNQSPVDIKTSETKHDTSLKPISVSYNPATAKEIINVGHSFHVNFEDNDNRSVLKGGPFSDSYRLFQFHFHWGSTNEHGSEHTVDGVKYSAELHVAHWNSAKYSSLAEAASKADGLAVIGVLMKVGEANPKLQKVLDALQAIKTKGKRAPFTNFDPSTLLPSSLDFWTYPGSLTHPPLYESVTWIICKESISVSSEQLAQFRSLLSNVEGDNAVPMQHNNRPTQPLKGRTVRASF
T3 sequence (P22748 19-284): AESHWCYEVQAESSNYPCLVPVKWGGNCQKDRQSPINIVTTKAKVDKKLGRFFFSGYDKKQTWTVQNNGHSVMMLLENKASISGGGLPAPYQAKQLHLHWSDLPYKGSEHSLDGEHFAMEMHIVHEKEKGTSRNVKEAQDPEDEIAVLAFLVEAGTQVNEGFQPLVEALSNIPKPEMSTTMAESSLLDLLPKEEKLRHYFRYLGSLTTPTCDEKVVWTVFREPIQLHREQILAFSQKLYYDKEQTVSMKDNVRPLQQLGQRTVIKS

Row | Compound | Ki [1] [µM] | Ki [2] [µM] | Ki [3] [µM] | Ki [4] [µM] | Ki [1, 5] [µM] | Ki [2, 5] [µM] | Ki [4, 5] [µM]
1 | NS(=O)(=O)c1cc(C(=O)O)ccc1Cl [3b, 4-Chloro-3-sulfamoylbenzoic acid] | 8.98 | 8.85 | 2.47 | 1.38 | – | – | –
2 | NS(=O)(=O)c1cccc(C(=O)NCc2cn(-c3cccc([N+](=O)[O-])c3)nn2)c1 [6c, N-((1–(3-nitrophenyl)-1H-1,2,3-triazol-4-yl)methyl)-3-sulfamoylbenzamide] | 6.92 | 0.952 | – | 9.27 | – | – | –
3 | COc1cc(-n2cc(CNC(=O)c3cccc(S(N)(=O)=O)c3)nn2)cc(OC)c1OC [6b, 3-Sulfamoyl-N-((1–(3,4,5-trimethoxyphenyl)-1H-1,2,3-triazol-4-yl)methyl)benzamide] | 4.9 | 0.855 | – | 8.97 | – | – | –
4 | Cc1cccc(-n2cc(CNC(=O)c3cccc(S(N)(=O)=O)c3)nn2)c1C [6g, N-((1–(2,3-dimethylphenyl)-1H-1,2,3-triazol-4-yl)methyl)-3-sulfamoylbenzamide] | 6.13 | 0.448 | 8.58 | 0.366 | – | – | –
5 | COc1ccc(C(=O)O)cc1S(N)(=O)=O [3d, 4-Methoxy-3-sulfamoylbenzoic acid] | 9.67 | 9.76 | 8.78 | 9.18 | – | – | –
6 | NS(=O)(=O)c1cccc(C(=O)O)c1 [3a, 3-Sulfamoylbenzoic acid] | 9.42 | 8.77 | – | 8.66 | – | – | –
7 | COc1ccccc1-n1cc(CNC(=O)c2ccc(OC)c(S(N)(=O)=O)c2)nn1 [6z, 4-Methoxy-N-((1–(2-methoxyphenyl)-1H-1,2,3-triazol-4-yl)methyl)-3-sulfamoylbenzamide] | 0.768 | 0.952 | 8.93 | 5.37 | – | – | –
8 | COc1ccc(-n2cc(CNC(=O)c3cccc(S(N)(=O)=O)c3)nn2)cc1 [6f, N-((1–(4-methoxyphenyl)-1H-1,2,3-triazol-4-yl)methyl)-3-sulfamoylbenzamide] | – | – | – | – | 6.75 | 0.888 | 9.01
9 | COc1ccc(C(=O)NCc2cn(-c3ccc(C)cc3)nn2)cc1S(N)(=O)=O [6w, 4-Methoxy-3-sulfamoyl-N-((1-(p-tolyl)-1H-1,2,3-triazol-4-yl)methyl)benzamide] | 0.526 | 0.967 | 7.62 | 4.16 | – | – | –
10 | C#CCNC(=O)c1cccc(S(N)(=O)=O)c1 [4a, N-(prop-2-yn-1-yl)-3-sulfamoylbenzamide] | 9.36 | 9.28 | 8.46 | 0.514 | – | – | –
11 | N#Cc1cccc(-n2cc(CNC(=O)c3cccc(S(N)(=O)=O)c3)nn2)c1 [6e, N-((1–(3-cyanophenyl)-1H-1,2,3-triazol-4-yl)methyl)-3-sulfamoylbenzamide] | 3.19 | 0.431 | 9.3 | 2.36 | – | – | –
12 | COc1ccc(C(=O)NCc2cn(-c3ccc(F)cc3)nn2)cc1S(N)(=O)=O [6v, N-((1–(4-fluorophenyl)-1H-1,2,3-triazol-4-yl)methyl)-4-methoxy-3-sulfamoylbenzamide] | 6.82 | 0.572 | 5.35 | 9.65 | – | – | –
13 | NS(=O)(=O)c1cccc(C(=O)NCc2cn(-c3cccc(F)c3)nn2)c1 [6d, N-((1–(3-fluorophenyl)-1H-1,2,3-triazol-4-yl)methyl)-3-sulfamoylbenzamide] | 7.42 | 0.867 | 8.84 | 2.97 | – | – | –
14 | NS(=O)(=O)c1cccc(C(=O)NCc2cn(-c3ccccc3)nn2)c1 [6a, N-((1-phenyl-1H-1,2,3-triazol-4-yl)methyl)-3-sulfamoylbenzamide] | 7.98 | 0.753 | 9.42 | 4.49 | – | – | –
15 | COc1ccc(C(=O)NCc2cn(-c3ccccc3)nn2)cc1S(N)(=O)=O [6u, 4-Methoxy-N-((1-phenyl-1H-1,2,3-triazol-4-yl)methyl)-3-sulfamoylbenzamide] | 0.703 | 0.681 | 9.35 | 2.9 | – | – | –
